Test results published in PMC11990615 (Molecules, 2025).
“And” between values parts separate entries of the source, which are not always exact repeats. Identical values can stand only once.

Experiments:
[1] = test system: Colletotrichum gloeosporioides; assay: Fungicidal activity, mycelial growth inhibition on PDA plates; settings: for Inhibition rate: at a concentration of 26.5 μmol/L; for inhibition at 26.5 µM: read-out: Inhibition rate; for IC50: mycelial growth, 96 h dark incubation at 26 °C
Method: Pure water was used as a negative control. Mycelial plugs with a diameter of 5 mm were positioned in the middle of PDA plates that held various sample concentrations. Every treatment was carried out three times. […] The formula used to compute the suppression of mycelial growth was inhibition (%) = (Dc − Dt)/(Dc − 5) × 100%, where Dc and Dt are the diameters in millimeters of the treatment colony and the control colony, respectively. […] The tests, in turn, constructed t-statistics and determined the signifi-cance of differences between groups.

[2] = Photostability under UV irradiation (photolysis kinetics); format: physicochemical; settings: aqueous solution 26.6 μmol/L, 15 W UV lamp 254 nm, 25 °C; for half-life at 26.6 μmol/L: read-out: t1/2, photolysis half-life (converted)
Method: Photostability evaluation. […] At different time intervals (0, 0.5, 1, 1.5, 2, 3, 4, and 6 h), 100 μL of the solutions was accurately removed from the vials, diluted tenfold with methanol, and analyzed by HPLC-MS/MS. Instrument specifications are detailed in the Supporting Information.
As dark controls, aluminum foil-wrapped quartz tubes were used to prevent the impact of outside variables. […] The coefficient of determination r^2 was used to describe the goodness of fit of the curves. The half-lives t1/2 of the chemicals were calculated by the following formula:(2) t1/2=−ln(0.5)/K

[3] = parameters: method as in earlier work; settings: cited from earlier work
[4] = test system: aquatic organisms; parameters: method as in earlier work; settings: cited from earlier work
[5] = Octanol-water partition coefficient, shake-flask method; format: physicochemical; settings: n-octanol/water, 25 °C
Method: Initially, a n-octanol solution containing 2000 mg/L of the compound was mixed with water in centrifuge tubes at 1:2, 1:1, and 2:1 volume ratios, with two parallel samples for each ratio. All tubes were shaken at a constant temperature of 25 °C for 3 h. Subsequently, the samples were centrifuged at 4000 rpm for 10 min. The octanol and aqueous phases were then carefully collected and diluted tenfold with methanol, and their concentrations were measured using HPLC-UV and HPLC-MS/MS, respectively. Instrument specifications are detailed in the Supporting Information.

[6] = weak base; no reference given; cited from earlier work
[7] = Interfacial surface tension, Wilhelmy plate method; format: physicochemical; settings: saturated aqueous solution, 25 °C; no unit printed with the values (method: mN/m)
Method: Pure water’s surface tension was used to calibrate the device. After cleaning and drying, the sensing platinum plate was slowly oriented perpendicular to the solution interface. The plate will stop when the liquid surface tension and other relevant forces reach a balance. The interfacial surface tension values of the test chemicals were noted. Each compound was determined with three parallel samples.

[8] = Colletotrichum gloeosporioides, 96 h

## CC(=O)O [Acetic acids, Acetic acid]
[1]
  Inhibition rate: 8.3 ± 2.3%

## O=C(O)c1ccccc1 [Benzoic acids, Benzoic acid]
[1]; Colletotrichum gloeosporioides
  inhibition at 26.5 µM: 7.2 ± 1.2%

## O=C(O)/C=C/c1ccccc1 [Cinnamic acids, Cinnamic acid]
[1]; Colletotrichum gloeosporioides
  inhibition at 26.5 µM: 7.5 ± 2.4%

## CC(O)C(=O)O (stereo not shown) [Lactic acids, Lactic acid]
[1]; Colletotrichum gloeosporioides
  inhibition at 26.5 µM: 6 ± 1%

## CCCCCCCCC(=O)O [Nonanoic acids, Nonanoic acid]
[1]; Colletotrichum gloeosporioides
  inhibition at 26.5 µM: 1.8 ± 1.3%

## CCCCCCCC/C=C\CCCCCCCC(=O)O [Oleic acids, Oleic acid]
[1]; Colletotrichum gloeosporioides
  inhibition at 26.5 µM: 3.4 ± 1.3%

## CCCN(CCOc1c(Cl)cc(Cl)cc1Cl)C(=O)n1ccnc1 [Prochloraz, N-propyl-N-(2,4,6-trichlorophenoxy)ethyl-imidazole-1-carboxamide]
[2]
  K, first-order photolysis rate constant: 0.641 h⁻¹
  half-life at 26.6 μmol/L: 1.08 h
[3]
  Photolysis half-life in water: 36 h
[4]
  Concentrations at which embryonic mortality and developmental effects were observed: 2400 ng/mL and 4800 ng/mL
[1]; [8]
  IC50: 1.39 µM and 0.52 µg/mL
[1]; Colletotrichum gloeosporioides
  inhibition at 26.5 µM: 100 ± 0.1%
[5]
  logKow: 3.52
[6]
  pKa: 3.8
[7]
  Interfacial surface tension: 51.75

## CC(=O)C(=O)O [Pyruvic acids, Pyruvic acid]
[1]; Colletotrichum gloeosporioides
  inhibition at 26.5 µM: 4.5 ± 0.4%

## O=C(O)c1ccccc1O [Salicylic acids, Salicylic acid]
[1]; Colletotrichum gloeosporioides
  inhibition at 26.5 µM: 4.5 ± 0.3%

## O=C([O-])c1ccccc1O.[Na+] [Sodium Salicylate]
[1]
  Inhibition rate: 2.0 ± 2.7%

## CC(=O)[O-].[Na+] [Sodium acetate]
[1]
  Inhibition rate: 5.9 ± 0.5%

## O=C([O-])c1ccccc1.[Na+] [Sodium benzoate]
[1]
  Inhibition rate: 3.0 ± 1.1%

## O=C([O-])/C=C/c1ccccc1.[Na+] [Sodium cinnamate]
[1]
  Inhibition rate: 2.8 ± 1.1%

## CC(O)C(=O)[O-].[Na+] (stereo not shown) [Sodium lactate]
[1]
  Inhibition rate: 4.0 ± 0.4%

## CCCCCCCCC(=O)[O-].[Na+] [Sodium nonanoate]
[1]
  Inhibition rate: 2.9 ± 0.3%

## CCCCCCCC/C=C\CCCCCCCC(=O)[O-].[Na+] [Sodium oleate]
[1]
  Inhibition rate: 3.9 ± 2.6%

## CC(=O)C(=O)[O-].[Na+] [Sodium pyruvate]
[1]
  Inhibition rate: 3.5 ± 0.2%

## CC(=O)O.CCCN(CCOc1c(Cl)cc(Cl)cc1Cl)C(=O)n1ccnc1 [[Pro][AceA]] [listing 1 of 2 here]
[2]
  half-life at 26.6 μmol/L: 1.73 h
[1]; [8]
  IC50: 0.53 µg/mL

## CC(=O)O.CCCN(CCOc1c(Cl)cc(Cl)cc1Cl)C(=O)n1ccnc1 [[Pro][AceA]] [listing 2 of 2 here]
[2]
  K, first-order photolysis rate constant: 0.400 h⁻¹
[1]
  IC50: 1220 nM

## CCCN(CCOc1c(Cl)cc(Cl)cc1Cl)C(=O)n1ccnc1.O=C(O)c1ccccc1 [[Pro][BenA]] [listing 1 of 2 here]
[2]
  half-life at 26.6 μmol/L: 0.9 h
[1]; [8]
  IC50: 1.04 µg/mL

## CCCN(CCOc1c(Cl)cc(Cl)cc1Cl)C(=O)n1ccnc1.O=C(O)c1ccccc1 [[Pro][BenA]] [listing 2 of 2 here]
[2]
  K, first-order photolysis rate constant: 0.774 h⁻¹
[1]
  IC50: 2090 nM

## CCCN(CCOc1c(Cl)cc(Cl)cc1Cl)C(=O)n1ccnc1.O=C(O)/C=C/c1ccccc1 [[Pro][CinA]]
[2]
  K, first-order photolysis rate constant: 0.305 h⁻¹
[1]
  IC50: 2 µM and 1.05 mg/L

## CC(O)C(=O)O.CCCN(CCOc1c(Cl)cc(Cl)cc1Cl)C(=O)n1ccnc1 [[Pro][LacA]] [listing 1 of 2 here]
[2]
  half-life at 26.6 μmol/L: 1.77 h
[1]; [8]
  IC50: 0.81 µg/mL

## CC(O)C(=O)O.CCCN(CCOc1c(Cl)cc(Cl)cc1Cl)C(=O)n1ccnc1 [[Pro][LacA]] [listing 2 of 2 here]
[2]
  K, first-order photolysis rate constant: 0.391 h⁻¹
[1]
  IC50: 1740 nM

## CCCCCCCCC(=O)O.CCCN(CCOc1c(Cl)cc(Cl)cc1Cl)C(=O)n1ccnc1 [[Pro][NonA]]
[2]
  K, first-order photolysis rate constant: 0.438 h⁻¹
  t1/2, photolysis half-life: 1.58 h
[7]
  Interfacial surface tension: 41.24

## CCCCCCCCC=CCCCCCCCC(=O)O.CCCN(CCOc1c(Cl)cc(Cl)cc1Cl)C(=O)n1ccnc1 [[Pro][OleA]]
[2]
  K, first-order photolysis rate constant: 0.552 h⁻¹
[1]
  IC50: 1.33 µg/mL
[7]
  Interfacial surface tension: 42.53

## CCCN(CCOc1c(Cl)cc(Cl)cc1Cl)C(=O)n1ccnc1 [[Pro][OleA]]
[1]
  IC50: 2020 nM

## CC(=O)C(=O)O.CCCN(CCOc1c(Cl)cc(Cl)cc1Cl)C(=O)n1ccnc1 [[Pro][PyrA]]
[2]
  K, first-order photolysis rate constant: 0.383 h⁻¹
  t1/2, photolysis half-life: 1.81 h

## CCCN(CCOc1c(Cl)cc(Cl)cc1Cl)C(=O)n1ccnc1.O=C(O)c1ccccc1O [[Pro][SalA]] [listing 1 of 2 here]
[2]
  half-life at 26.6 μmol/L: 1.73 h
[1]; [8]
  IC50: 1 µg/mL

## CCCN(CCOc1c(Cl)cc(Cl)cc1Cl)C(=O)n1ccnc1.O=C(O)c1ccccc1O [[Pro][SalA]] [listing 2 of 2 here]
[2]
  K, first-order photolysis rate constant: 0.401 h⁻¹
[1]
  IC50: 1940 nM
